Reference: ChEMBL document CHEMBL1156236, “Trypanoside, anti-tuberculosis, leishmanicidal, and cytotoxic activities of tetrahydrobenzothienopyrimidines” (Bioorg Med Chem, 2010)
Values after ≈ are worked out from the molar mass of the structure shown.

How the values were obtained:
[1] = test system: MCF7; experiment: Cytotoxicity against human MCF7 cells; assay type: functional
[2] = test system: Vero; experiment: Cytotoxicity against african green monkey Vero cells after 72 hrs by MTS assay; settings: Chlorocebus sabaeus, Vero, 72 h
[3] = test system: DU-145; experiment: Cytotoxicity against human DU145 cells; assay type: functional
[4] = Cytotoxicity against BALB mouse 3T3 cells; assay type: cell-based; settings: BALB 3T3 cells
[5] = test system: NCI-H460; experiment: Cytotoxicity against human NCI-H460 cells; assay type: functional
[6] = test system: M14; experiment: Cytotoxicity against human M14 cells; assay type: functional
[7] = Selectivity index, ratio of IC50 for BALB/c mouse macrophages to IC50 for Leishmania amazonensis MHOM/BR/76/LTB-012
[8] = test system: HT-29; experiment: Cytotoxicity against human HT-29 cells; assay type: functional
[9] = test system: Leishmania amazonensis; experiment: Antileishmanial activity against Leishmania amazonensis MHOM/BR/76/LTB-012 amastigotes infected BALB/c mouse macrophages after 48 hrs by MTT assay; assay type: functional, organism-based; settings: MHOM/BR/76/LTB-012, 48 h
[10] = Selectivity index, ratio of IC50 for african green monkey Vero cells to MIC for Mycobacterium tuberculosis H37Rv ATCC 27294 by microplate alamar blue assay; assay type: functional
[11] = test system: Mycobacterium tuberculosis; experiment: Antitubercular activity against Mycobacterium tuberculosis H37Rv ATCC 27294 after 7 days by microplate alamar blue assay; assay type: functional; settings: H37Rv ATCC 27294, 168 h
[12] = Cytotoxicity against BALB/c mouse macrophages after 48 hrs by trypan blue dye exclusion method; assay type: cell-based; settings: Macrophage
[13] = test system: K562; experiment: Cytotoxicity against human K562 cells; assay type: functional
[14] = Selectivity index, ratio of IC50 for african green monkey Vero cells to IC50 for Trypanosoma cruzi tulahuen C4; settings: Vero cells
[15] = test system: Trypanosoma cruzi; experiment: Antitrypanosomal activity against Trypanosoma cruzi tulahuen C4 trypomastigotes infected in african green monkey Vero cells assessed as CPRG cleavage after 120 hrs by microplate reader; assay type: functional, organism-based
[16] = Selectivity index, ratio of IC50 for african green monkey Vero cells to MIC for Mycobacterium tuberculosis H37Rv ATCC 27294 by low oxygen recovery assay; assay type: functional
[17] = test system: Mycobacterium tuberculosis; experiment: Antitubercular activity against Mycobacterium tuberculosis H37Rv ATCC 27294 after 7 days by low oxygen recovery assay; assay type: functional; settings: H37Rv ATCC 27294, 168 h

| Compound | GI50 [1] | IC50 [2] | GI50 [3] | GI50 [4] | GI50 [5] | GI50 [6] | Ratio IC50 [7] | GI50 [8] | IC50 [9] | Ratio IC50 [10] | MIC [11] | IC50 [12] | GI50 [13] | selectivity ratio [14] | IC50 [15] | Ratio IC50 [16] | MIC [17] |
| --- | --- | --- | --- | --- | --- | --- | --- | --- | --- | --- | --- | --- | --- | --- | --- | --- | --- |
| NNc1ncnc2sc3c(c12)CCCC3 | 9 µM | 40.9 µM | 13.9 µM | < 4.5 µM | 9.6 µM | 24.6 µM | 0.6 | 20.7 µM | 54.4 µM | 0.3 | 374 µM (≈ 82.5 µg/mL) | 33.8 µM | 11.1 µM | 1.9 | 21.3 µM | – | – |
| C(=N\Nc1ncnc2sc3c(c12)CCCC3)/c1ccc[nH]1 | 0.4 µM | 3.4 µM | 4.6 µM | 2.2 µM | 1.7 µM | 2.5 µM | 1 | 3.8 µM | 10.1 µM | 0.6 | 20.8 µM (≈ 6.19 µg/mL) | 9.7 µM | 1.9 µM | 0.1 | 22.9 µM | – | – |
| Oc1ccc(/C=N/Nc2ncnc3sc4c(c23)CCCC4)cc1 | 17 µM | 12.3 µM | 20.8 µM | 6.6 µM | 14.9 µM | 17.2 µM | 4.3 | 19.5 µM | 41.6 µM | 0.6 | 72.1 µM (≈ 23.4 µg/mL) | 178 µM | 15.8 µM | 1.1 | 11.3 µM | – | – |
| Clc1ccccc1/C=N/Nc1ncnc2sc3c(c12)CCCC3 | 22 µM | 14.6 µM | 77.8 µM | 88.1 µM | 62.9 µM | > 170 µM | 5 | 56.5 µM | 2.2 µM | 0.7 | 124 µM (≈ 42.6 µg/mL) | 11.2 µM | 19.8 µM | 0.7 | 21.3 µM | – | – |
| COc1cccc(/C=N/Nc2ncnc3sc4c(c23)CCCC4)c1 | 14.9 µM | 14.8 µM | 17.7 µM | 17.6 µM | 16.2 µM | 143 µM | 0.5 | 7.4 µM | 36.1 µM | 0.6 | 119 µM (≈ 40.4 µg/mL) | 16.3 µM | 15.5 µM | 0.9 | 16.9 µM | – | – |
| COc1ccc(/C=N/Nc2ncnc3sc4c(c23)CCCC4)cc1 | 12.5 µM | 17.7 µM | 23.1 µM | 14.9 µM | 17.1 µM | 16.3 µM | 1.3 | 17.3 µM | 47.5 µM | 3.2 | 71.2 µM (≈ 24.1 µg/mL) | 63.9 µM | 13.9 µM | 1.1 | 16 µM | 8.4 | 26.9 µM (≈ 9.1 µg/mL) |
| C(=N\Nc1ncnc2sc3c(c12)CCCC3)/c1ccco1 | 1 µM | 10.1 µM | 15.6 µM | 7.8 µM | 7.1 µM | 11.1 µM | 0.6 | 8.5 µM | 4.2 µM | 1 | 39.9 µM (≈ 11.9 µg/mL) | 2.4 µM | 4 µM | 0.6 | 16.1 µM | 4.2 | 9.7 µM (≈ 2.89 µg/mL) |
| C/C(=N/Nc1ncnc2sc3c(c12)CCCC3)c1ccccc1 | 16.5 µM | 12.4 µM | 16.1 µM | 5.4 µM | 15.9 µM | 19.8 µM | 5.6 | 21.9 µM | 28.5 µM | 1.4 | 72.6 µM (≈ 23.4 µg/mL) | 159 µM | 10.9 µM | 0.9 | 13.7 µM | 11.5 | 8.7 µM (≈ 2.81 µg/mL) |
